Assay results published in patent US9585891B2 (MERCK PATENT GMBH, priority 2012, dated 2017).

Molecular target: T1, Human recombinant Vanin-1 (VNN1) (Homo sapiens, UniProt O95497)
T1 construct: purchased Sino Biological Inc. 11662-H08H
T1 sequence (O95497 22-491): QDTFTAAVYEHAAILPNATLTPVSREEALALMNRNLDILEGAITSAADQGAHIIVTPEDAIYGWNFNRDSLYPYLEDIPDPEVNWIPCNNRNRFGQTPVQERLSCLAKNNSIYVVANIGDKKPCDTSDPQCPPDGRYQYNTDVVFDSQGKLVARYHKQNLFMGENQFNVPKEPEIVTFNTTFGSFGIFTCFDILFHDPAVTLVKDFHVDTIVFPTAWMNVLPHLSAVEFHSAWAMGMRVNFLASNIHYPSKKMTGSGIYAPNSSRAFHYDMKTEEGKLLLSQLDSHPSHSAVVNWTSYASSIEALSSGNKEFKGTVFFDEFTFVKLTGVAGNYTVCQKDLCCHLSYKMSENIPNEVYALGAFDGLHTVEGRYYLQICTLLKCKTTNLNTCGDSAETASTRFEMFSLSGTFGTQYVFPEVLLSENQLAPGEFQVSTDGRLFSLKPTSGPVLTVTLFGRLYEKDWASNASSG
Assay: Vanin-1 enzymatic assay (fluorescence intensity, Pantothenate-AMC substrate)
Assay type: biochemical
Details: purified recombinant human Vanin-1 0.5 nM; 30 min preincubation at 30° C.; Pantothenate-AMC 30 μM, 60 min
Protocol: Human recombinant Vanin-1 (VNN1) was purchased from Sino Biological Inc. (Catalog Number: 11662-H08H).
Measurement of VNN1 inhibition is performed in 384-well format based on fluorescence intensity assay. Purified recombinant human Vanin-1 (0.5 nM) and threefold serial diluted compounds in 3% DMSO (range of concentrations from 30 μM to 1.524 nM) or controls (3.0% DMSO) are incubated for 30 minutes at 30° C. with gentle agitation in assay buffer containing 100 mM potassium Phosphate Buffer (KPi), pH 7.5, 0.001% Bovine Serum Albumin (BSA), 0.5 mM dithiothreitol (DTT) and 0.0025% Brij-35. The reaction is initiated by the addition of the fluorogenic substrate, Pantothenate-AMC, at a concentration of 30 μM. After 60 minutes of incubation at 30° C. with gentle agitation, fluorescence intensity is measured at λex=350 nm and λem=450 nm with a fluorescence reader (BMG PHERAstar reader or equivalent).

Compound | IC50
CC(=O)CCNC(=O)[C@H](O)C(C)(C)CO [Example 1, (R)-2,4-Dihydroxy-3,3-dimethyl-N-(3-oxo-butyl)-butyramide] | 5370 nM
CCC(=O)CCNC(=O)[C@H](O)C(C)(C)CO [Example 2, (R)-2,4-Dihydroxy-3,3-dimethyl-N-(3-oxo-pentyl)-butyramide] | 20500 nM
CC(C)(CO)[C@@H](O)C(=O)NCCC(=O)C(=O)NCCc1ccccc1 [Example 12, (R)-2,4-Dihydroxy-3,3-dimethyl-N-(3-oxo-3-phenethylcarbamoyl-propyl)-butyramide] | 90 nM
CC(C)(CO)[C@H](O)C(=O)NCCC(=O)C(=O)NCc1ccccc1 [Example 13, (S)—N-(3-Benzylcarbamoyl-3-oxo-propyl)-2,4-dihydroxy-3,3-dimethyl-butyramide] | 460 nM
CC(C)(CO)[C@@H](O)C(=O)NCCC(=O)C(=O)Nc1ccccc1 [Example 16, (R)-2,4-Dihydroxy-3,3-dimethyl-N-(3-oxo-3-phenylcarbamoyl-propyl)-butyramide] | 8320 nM
CC(C)(CO)[C@@H](O)C(=O)NCCC(=O)C(=O)NC1CCCCC1 [Example 18, (R)—N-(3-Cyclohexylcarbamoyl-3-oxo-propyl)-2,4-dihydroxy-3,3-dimethyl butyramide] | 3350 nM
CC(NC(=O)C(=O)CCNC(=O)[C@H](O)C(C)(C)CO)c1ccccc1 (some centres unmarked) [Example 20] | 3030 nM
CC(C)(CO)[C@@H](O)C(=O)NCCC(=O)C(=O)NC(c1ccccc1)c1ccccc1 [Example 21, (R)—N-[3-(Benzhythyl-carbamoyl)-3-oxo-propyl]-2,4-dihydroxy-3,3-dimethyl-butyramide] | 11500 nM
COC(=O)CNC(=O)C(=O)CCNC(=O)[C@H](O)C(C)(C)CO [Example 25, [4-((R)-2,4-Dihydroxy-3,3-dimethyl-butyrylamino)-2-oxo-butyrylamino]-acetic acid methyl ester] | 2320 nM
CN(Cc1ccccc1)C(=O)C(=O)CCNC(=O)[C@H](O)C(C)(C)CO [Example 27] | 9730 nM
CC(C)(CO)[C@@H](O)C(=O)NCCC(=O)C(=O)NCC1CCCO1 (stereo partly drawn) [Example 29, (R)-2,4-Dihydroxy-3,3-dimethyl-N-(3-oxo-3-[(tetrahydro-furan-2-ylmethyl)-carbamoyl]-propyl)-butyramide] | 700 nM
CC(C)(CO)[C@@H](O)C(=O)NCCC(=O)C(=O)NCCc1ccc(S(C)(=O)=O)cc1 [Example 30, (R)-2,4-Dihydroxy-N-{3-[2-(4-methanesulfonyl-phenyl)-ethylcarbamoyl]-3-oxo-propyl}-3,3-dimethyl-butyramide] | 30 nM
CC(C)(CO)[C@@H](O)C(=O)NCCC(=O)C(=O)NCC1CCN(S(=O)(=O)c2ccccc2)CC1 [Example 34, (R)—N-(3-[(1-Benzenesulfonyl-piperidin-4-ylmethyl)-carbamoyl]-3-oxo-propyl)-2,4-dihydroxy-3,3-dimethyl-butyramide] | 20 nM
CC(C)(CO)[C@@H](O)C(=O)NCCC(=O)C(=O)NCCCc1ccc(S(=O)(=O)N2CCCCC2)cc1 [Example 35, (R)-2,4-Dihydroxy-3,3-dimethyl-N-(3-oxo-3-{3-[4-(piperidine-1-sulfonyl)-phenyl]-propylcarbamoyl}-propyl)-butyramide] | 70 nM

Results, then the compound that gave them:

IC50 | Compound
170 nM | CC(C)(CO)[C@@H](O)C(=O)NCCC(=O)C(=O)NCc1cccc(S(=O)(=O)N2CCCCC2)c1 [Example 36, (R)-2,4-Dihydroxy-3,3-dimethyl-N-{3-oxo-3-[3-(piperidine-1-sulfonyl)-benzylcarbamoyl}-propyl)-butyramide]
10 nM | CC(C)(CO)[C@@H](O)C(=O)NCCC(=O)C(=O)NCc1ccc(Oc2ccncc2)cc1 [Example 37, (R)-2,4-Dihydroxy-3,3-dimethyl-N-{3-oxo-3-[4-(pyridin-4-yloxy)-benzylcarbamoyl]-propyl}-butyramide]
< 10 nM | CC(C)(CO)[C@@H](O)C(=O)NCCC(=O)C(=O)NCC1CCN(S(=O)(=O)c2ccc(-c3ccccc3)cc2)CC1 [Example 38, (R)—N-(3-{[1-(Biphenyl-4-sulfonyl)-piperidin-4-ylmethyl]-carbamoyl}-3-oxo-propyl)-2,4-dihydroxy-3,3-dimethyl-butyramide]
400 nM | CC(C)(CO)[C@@H](O)C(=O)NCCC(=O)C(=O)NCCCN1CCOCC1=O [Example 40, (R)-2,4-Dihydroxy-3,3-dimethyl-N-{3-oxo-3-[3-(3-oxo-morpholin-4-yl)-propylcarbamoyl}-propyl)butyramide]
10 nM | CC(C)(CO)[C@@H](O)C(=O)NCCC(=O)C(=O)NCc1ccc(N2CCOCC2)cc1 [Example 41, (R)-2,4-Dihydroxy-3,3-dimethyl-N-[3-(4-morpholin-4-yl-benzylcarbamoyl)-3-oxo-propyl]-butyramide]
340 nM | CC(C)(CO)[C@@H](O)C(=O)NCCC(=O)C(=O)NCCOc1ccccc1 [Example 42, (R)-2,4-Dihydroxy-3,3-dimethyl-N-[3-oxo-3-(2-phenoxy-ethylcarbamoyl)-propyl]-butyramide]
12600 nM | CC(C)(CO)[C@@H](O)C(=O)NCCC(=O)C(=O)N1CCC(Nc2cccc(S(=O)(=O)C(F)(F)F)c2)CC1 [Example 43, (R)—N-{3,4-Dioxo-4-[4-(3-trifluoromethanesulfonyl-phenylamino)-piperidin-1-yl]-butyl}-2,4-dihydroxy-3,3-dimethyl-butyramide]
50 nM | CC(C)(CO)[C@@H](O)C(=O)NCCC(=O)C(=O)NCc1ccc(OCCN2CCOCC2)cc1 [Example 44, (R)-2,4-Dihydroxy-3,3-dimethyl-N-(3-[4-(2-morpholin-4-yl-ethoxy)-benzylcarbamoyl]-3-oxo-propyl)-butyramide]
20 nM | CCOC(=O)c1ccc(CNC(=O)C(=O)CCNC(=O)[C@H](O)C(C)(C)CO)cc1 [Example 45, 4-{[4-((R)-2,4-Dihydroxy-3,3-dimethyl-butyrylamino)-2-oxo-butyrylamino]-methyl}-benzoic acid ethyl ester]
< 10 nM | CC(C)(CO)[C@@H](O)C(=O)NCCC(=O)C(=O)NCC1CCN(S(=O)(=O)c2ccc(N3CCCC3=O)cc2)CC1 [Example 46, (R)-2,4-Dihydroxy-3,3-dimethyl-N-[3-oxo-3-({1-[4-(2-oxo-pyrrolidin-1-yl)-benzenesulfonyl]-piperidin-4-ylmethyl}-carbamoyl)-propyl]-butyramide]
20 nM | CC(C)(CO)[C@@H](O)C(=O)NCCC(=O)C(=O)NCC1CCN(S(C)(=O)=O)CC1 [Example 47, (R)-2,4-Dihydroxy-N-(3-[(1-methanesulfonyl-piperidin-4-ylmethyl)-carbamoyl]-3-oxo-propyl)-3,3-dimethyl-butyramide]
110 nM | CC(=O)N1CCC(CNC(=O)C(=O)CCNC(=O)[C@H](O)C(C)(C)CO)CC1 [Example 48, (R)—N-(3-[(1-Acetyl-piperidin-4-ylmethyl)-carbamoyl]-3-oxo-propyl)-2,4-dihydroxy-3,3-dimethyl-butyramide]
23000 nM | CC(C)(CO)[C@@H](O)C(=O)NCCC(=O)C(=O)N1CCOCC1 [Example 49, (R)-2,4-Dihydroxy-3,3-dimethyl-N-(4-morpholin-4-yl-3,4-dioxo-butyl)-butyramide]
30 nM | COCCOc1ccc(CNC(=O)C(=O)CCNC(=O)[C@H](O)C(C)(C)CO)cc1 [Example 50, (R)-2,4-Dihydroxy-N-(3-[4-(2-methoxy-ethoxy)-benzylcarbamoyl]-3-oxo-propyl)-3,3-dimethyl-butyramide]
20 nM | CC(C)(CO)[C@@H](O)C(=O)NCCC(=O)C(=O)NCC1CCN(S(=O)(=O)c2cccc(F)c2)CC1 [Example 51, (R)—N-(3-{[1-(3-Fluoro-benzenesulfonyl)-piperidin-4-ylmethyl]-carbamoyl}-3-oxo-propyl)-2,4-dihydroxy-3,3-dimethyl-butyramide]
50 nM | CC(C)(CO)[C@@H](O)C(=O)NCCC(=O)C(=O)NCC1CCN(S(=O)(=O)Cc2cccc(F)c2)CC1 [Example 52, (R)—N-(3-{[1-(3-Fluoro-phenylmethanesulfonyl)-piperidin-4-ylmethyl]-carbamoyl}-3-oxo-propyl)-2,4-dihydroxy-3,3-dimethyl-butyramide]
10 nM | CC(C)(CO)[C@@H](O)C(=O)NCCC(=O)C(=O)NCc1ccc(-c2ccc(S(C)(=O)=O)cc2)cc1 [Example 53, (R)-2,4-Dihydroxy-N-{3-[(4′-methanesulfonyl-biphenyl-4-ylmethyl)-carbamoyl]-3-oxo-propyl}-3,3-dimethyl-butyramide]
90 nM | CC(C)(CO)[C@@H](O)C(=O)NCCC(=O)C(=O)NCc1ccc(C(=O)O)cc1 [Example 54, 4-{[4-((R)-2,4-Dihydroxy-3,3-dimethyl-butrylamino)-2-oxo-butyrylamino]-methyl}-benzoic acid]
